We go through 32 substances from paper PMC11339918, “Extracellular Domain of IL-10 Receptor Chain-2 (IL-10R2) and Its Arginine-Containing Peptides Are Susceptible Substrates for Human Prostate Kallikrein-2 (KLK2)” (Biochemistry, 2024).

In general, Km refers to the concentration of substrate that gives half-maximal velocity.

Entries after “also recorded” stand apart in the source; their conditions may differ. *: point of attachment. EDDnp = O=[N+]([O-])c1ccc(NCCN*)c([N+](=O)[O-])c1

Assay [1] relates to KLK3. The experiment in a line: Hydrolysis by KLK3 of IL-10R2-derived FRET peptides containing F or Y. The class given is biochemical, human. Conditions: 2 nM KLK3, 20 mM Tris-HCl, 1 mM EDTA, 1.5 M sodium citrate, pH 7.8, 37 °C. From the text:
Obtained from a baculovirus-insect cell line system, purified, and activated as previously reported,[14] MUGB (4-methylumbelliferyl p-guanidino benzoate hydrochloride) was used for the spectrofluorimetric determination of molar concentrations of active KLK2.[15] KLK3 was obtained and assayed as previously reported.[3] […]
FRET Peptides with F FRET Peptides with Y
Abz-MNSVNFKNIL-Q-E DD np Abz-FTAQYLSYR-Q-EDD np
Abz-WESPAFAKGN-Q-EDD np Abz – AQYL SYRIF-Q-EDDnp
Abz-KGNLTFT AQY-Q-EDDnp Abz-SSLSKYGDHT-Q-EDD np
Abz-LSYRIFQDKA-Q-EDD np Abz-KIENEYET WT-Q-EDDnp
Abz-LTEADFSSLS-Q-EDD np Abz-TMKNVYNSWT-Q-ED Dnp
Abz-RVRAEFADEH-Q-EDDnp Abz-NSWTYNVQ-Q-EDDnp
Abz-HSDWVNITFAPVD-Q-EDDnp Abz-NVQYWKNG-Q-EDDnp
Abz-SLHMRFL AP K-Q-EDD np Abz-QITPQYDFEV-Q-EDD np
Abz-GTDEKFQ IT P-Q-EDD np Abz – EPWTTYAVQR-Q-EDD np
Conditions of reactions: 2 nM KLK3, 20 mM Tris -HCl, 1 mM EDTA, 1.5 M sodium citrate, pH 7.8, at 37 °C.
The sequence o f FRET peptide with F or Y in the middle of the sequence can be identiﬁed in the IL-
10R2 ectodomain sequence around F or Y, as shown b e l o w. Cysteines were substituted by Alanine (A)
1 MAWSLGSWLGGCLLVSALGMVPPPENVRMNSVNFKNILQWESPAFAKGNLTFTAQYLSYR.
61 IFQDKCMNTTLTECDFSSLSKYGDHTLRVRAEFADEHSDWVNITFCPVDDTIIGPPGMQV.
121 EVL ADSLHMR FL APKIENEY ET W TMKNVYN SWTYNVQYWK NGTDEKFQIT PQYDFEVLRN.
181 LEPW TTYCVQ VRGF LPDRNK AGEWSEPVCE QTTHDETVPS.

Assay [2] deals with T1, Recombinant KLK2 (Homo sapiens, UniProt P20151).
T1 construct: made in house; host or cells: baculovirus-insect cell line system
The experiment in a line: Hydrolysis of FRET peptides by recombinant KLK2 (kinetic parameters). The class given is biochemical. Conditions: for hydrolysis by KLK2 (in words): FRET peptides derived from the IL-10R2 ectodomain. From the text:
Obtained from a baculovirus-insect cell line system, purified, and activated as previously reported,[14] MUGB (4-methylumbelliferyl p-guanidino benzoate hydrochloride) was used for the spectrofluorimetric determination of molar concentrations of active KLK2.[15] KLK3 was obtained and assayed as previously reported.[3]
All of the FRET peptides were obtained by solid-phase peptide synthesis. The purity of FRET peptides to 95% or higher was obtained by semipreparative HPLC on a C18 reversed-phase column and used as protease substrates, as previously reported.[5] Details about the purification and quality of the FRET peptides are provided in the Supporting Information. The enzymatic kinetic measurements were all performed with FRET peptides as previously described.[5]
Five series of FRET peptides derived from Abz-KLRSSK-Q-EDDnp were assayed with KLK2 in 20 mM Tris–HCl, pH 8.0, and 1 M sodium citrate. […] The specificity of subsites S3, S2, S1’, and S2’ was explored by the FRET peptide series Abz-XLRSSKQ-EDDnp (for S3), Abz-KXRSSKQ-EDDnp (for S2), Abz-KLRXSKQ-EDDnp (for S1’), and Abz-KLRSXKQ-EDDnp (for S2’). All of them were hydrolyzed only at R–S or R–X peptide bonds, and the kinetic parameters for their hydrolysis by KLK2 are listed in Table 1.

[3] abbreviates: pH 8.0, 20 mM Tris–HCl, 1 M sodium citrate, 37 °C, KLK2 1.6 nM, three enzymatic reactions, standard errors 5% or less.
Setting [4] is: Table 3, FRET peptides derived from the IL-10R2 ectodomain.

T1 sequence (P20151 25-261): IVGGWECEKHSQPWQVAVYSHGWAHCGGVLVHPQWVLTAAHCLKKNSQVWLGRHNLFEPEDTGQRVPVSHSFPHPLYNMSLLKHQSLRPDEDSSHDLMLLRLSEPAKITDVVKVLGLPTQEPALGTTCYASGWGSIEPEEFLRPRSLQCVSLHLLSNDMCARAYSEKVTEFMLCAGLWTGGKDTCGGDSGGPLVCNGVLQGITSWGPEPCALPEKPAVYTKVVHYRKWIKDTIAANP

For “Abz – AQYL SYRIF-Q-EDDnp [Abz-AQYLSYRIF-Q-EDDnp, FRET peptide with Y derived from IL-10R2 ectodomain]”, the “hydrolysis by KLK3 (in words)” value in assay [1] is “resistant to hydrolysis by KLK3”.
The same measure, in the same setting: with “Abz – EPWTTYAVQR-Q-EDD np [Abz-EPWTTYAVQR-Q-EDDnp, FRET peptide with Y derived from IL-10R2 ectodomain]” the entry was “resistant to hydrolysis by KLK3”; with “Abz-FTAQYLSYR-Q-EDD np [Abz-FTAQYLSYR-Q-EDDnp, FRET peptide with Y derived from IL-10R2 ectodomain]”, “resistant to hydrolysis by KLK3”.
Same read-out and setting: the same measure for “Abz-GTDEKFQ IT P-Q-EDD np [Abz-GTDEKFQITP-Q-EDDnp, FRET peptide with F derived from IL-10R2 ectodomain]”: “resistant to hydrolysis by KLK3”; for “Abz-HSDWVNITFAPVD-Q-EDDnp [FRET peptide with F derived from IL-10R2 ectodomain]”: “resistant to hydrolysis by KLK3”.
For “Abz-KGNLTFT AQY-Q-EDDnp [Abz-KGNLTFTAQY-Q-EDDnp, FRET peptide with F derived from IL-10R2 ectodomain]”, the “hydrolysis by KLK3 (in words)” value in assay [1] is listed as “resistant to hydrolysis by KLK3”.
The same measure, in the same setting: with “Abz-KIENEYET WT-Q-EDDnp [Abz-KIENEYETWT-Q-EDDnp, FRET peptide with Y derived from IL-10R2 ectodomain]” the entry was “resistant to hydrolysis by KLK3”.
Regarding “Abz-KXRSSKQ-EDDnp, X = Y: FRET peptide, S2 series, X = Y [Abz-KXRSSKQ-EDDnp, X = Y] (Abz-KYRSSKQ-EDDnp)”, in assay [2] (setting [3]), the Km came out at 5.6 µM, the kcat is 12.8 s^–1 and the kcat/Km is given as 2304 s^–1 mM^–1.
As for “Abz-LPDRNK-Q-EDDnp [FRET peptide derived from the IL-10R2 ectodomain, ^195LPDRN^200K]”, the “hydrolysis by KLK2 (in words)” value in assay [2] was “resistant to KLK2; also recorded: no hydrolysis”.
On to “Abz-LSKYGD-Q-EDDnp [FRET peptide derived from the IL-10R2 ectodomain, ^79LSKYG^84D]”, for which the “hydrolysis by KLK2 (in words)” value in assay [2] is given as “resistant to hydrolysis; also recorded: no hydrolysis”.
Turning to “Abz-LSYRIFQDKA-Q-EDD np [Abz-LSYRIFQDKA-Q-EDDnp, FRET peptide with F derived from IL-10R2 ectodomain]”, in assay [1], the “hydrolysis by KLK3 (in words)” value was “resistant to hydrolysis by KLK3”.
Take “Abz-LTEADFSSLS-Q-EDD np [Abz-LTEADFSSLS-Q-EDDnp, FRET peptide with F derived from IL-10R2 ectodomain]”: in assay [1], the “hydrolysis by KLK3 (in words)” value is “resistant to hydrolysis by KLK3”.
On the same count and under the same terms, the same measure for “Abz-MNSVNFKNIL-Q-E DD np [Abz-MNSVNFKNIL-Q-EDDnp, FRET peptide with F derived from IL-10R2 ectodomain]”: “resistant to hydrolysis by KLK3”; for “Abz-NSWTYNVQ-Q-EDDnp [FRET peptide with Y derived from IL-10R2 ectodomain]”: “resistant to hydrolysis by KLK3”; for “Abz-NVQYWKNG-Q-EDDnp [FRET peptide with Y derived from IL-10R2 ectodomain]”: “resistant to hydrolysis by KLK3”.
The same measure, in the same setting: with “Abz-QITPQYDFEV-Q-EDD np [Abz-QITPQYDFEV-Q-EDDnp, FRET peptide with Y derived from IL-10R2 ectodomain]” the entry was “resistant to hydrolysis by KLK3”.
Still for that read-out and setting: with “Abz-RVRAEFADEH-Q-EDDnp [FRET peptide with F derived from IL-10R2 ectodomain]” the entry was “resistant to hydrolysis by KLK3”; with “Abz-SLHMRFL AP K-Q-EDD np [Abz-SLHMRFLAPK-Q-EDDnp, FRET peptide with F derived from IL-10R2 ectodomain]”, “resistant to hydrolysis by KLK3”; with “Abz-SSLSKYGDHT-Q-EDD np [Abz-SSLSKYGDHT-Q-EDDnp, FRET peptide with Y derived from IL-10R2 ectodomain]”, “resistant to hydrolysis by KLK3”.
“Abz-SYRIFQ-Q-EDDnp [FRET peptide derived from the IL-10R2 ectodomain, ^58SYRI^62F]”: in assay [2] (setting [4]), the Km was 0.95 µM, the kcat came out at 7.3 s^–1 and the kcat/Km was 7684 mM s–1.
Turning to “Abz-T P QYDFEVLR-Q-EDDnp [Abz-TPQYDFEVLR-Q-EDDnp, FRET peptide with F derived from IL-10R2 ectodomain]”, the “hydrolysis by KLK3 (in words)” value in assay [1] is reported as “resistant to hydrolysis by KLK3”.
As for “Abz-TLRVRAE-Q-EDDnp [FRET peptide derived from the IL-10R2 ectodomain, ^86TLRVRA^92E]”, in assay [2] (setting [4]), the Km came out at 1.34 µM, the kcat was determined as 2.47 s^–1 and the kcat/Km is given as 1843 mM s–1.
Turning to “Abz-TMKNVYNSWT-Q-ED Dnp [Abz-TMKNVYNSWT-Q-EDDnp, FRET peptide with Y derived from IL-10R2 ectodomain]”, in assay [1], the “hydrolysis by KLK3 (in words)” value is on record as “resistant to hydrolysis by KLK3”.
Still for that read-out and setting: the same measure for “Abz-VQVRGFLPDR-Q-EDD np [Abz-VQVRGFLPDR-Q-EDDnp, FRET peptide with F derived from IL-10R2 ectodomain]”: “resistant to hydrolysis by KLK3”.
Take “Abz-XLRSSKQ-EDDnp, X = E: FRET peptide, S3 series, X = E (Abz-ELRSSKQ-EDDnp)”: in assay [2] (setting [3]), the Km stood at 7.6 µM, the kcat came out at 7.4 s^–1 and the kcat/Km came out at 974 s^–1 mM^–1.
On to “Abz-XLRSSKQ-EDDnp, X = F: FRET peptide, S3 series, X = F [Abz-XLRSSKQ-EDDnp, X = F] (Abz-FLRSSKQ-EDDnp)”, for which, in assay [2] (setting [3]), the Km came out at 6.6 µM, the kcat is recorded as 9.6 s^–1 and the kcat/Km came out at 1455 s^–1 mM^–1.
The corresponding values for “Abz-XLRSSKQ-EDDnp, X = H: FRET peptide, S3 series, X = H (N-terminal Abz, C-terminal EDDnp; X = H)” are 4.2 µM, 17.2 s^–1 and 4095 s^–1 mM^–1.
On the same counts, the results for “Abz-XLRSSKQ-EDDnp, X = N: FRET peptide, S3 series, X = N (Abz-NLRSSKQ-EDDnp)” are 7.8 µM, 26.7 s^–1 and 3423 s^–1 mM^–1.
On the same counts, the results for “Abz-XLRSSKQ-EDDnp, X = Q: FRET peptide, S3 series, X = Q (Abz-QLRSSKQ-EDDnp)” are 5.9 µM, 25.7 s^–1 and 4356 s^–1 mM^–1.
For the substance “Abz-XLRSSKQ-EDDnp, X = R: FRET peptide, S3 series, X = R (Abz-RLRSSKQ-EDDnp)”, in assay [2] (setting [3]), the Km stood at 3.9 µM, the kcat was 22.3 s^–1 and the kcat/Km was 5718 s^–1 mM^–1.
“Abz-XLRSSKQ-EDDnp, X = S: FRET peptide, S3 series, X = S (Abz-SLRSSKQ-EDDnp)”: in assay [2] (setting [3]), the Km was determined as 3 µM, the kcat was determined as 29.8 s^–1 and the kcat/Km is 9933 s^–1 mM^–1.
On the same counts, the results for “Abz-XLRSSKQ-EDDnp, X = V: FRET peptide, S3 series, X = V [Abz-XLRSSKQ-EDDnp, X = V] (Abz-VLRSSKQ-EDDnp)” are 4.7 µM, 17.9 s^–1 and 3808 s^–1 mM^–1.
